Some test systems named below: HOP-62 NSCLC; HOP-92 NSCLC; KM12 colon; MDA-MB-231 breast; SF-539 CNS; SN12C renal; SNB-75 CNS; UACC-257 melanoma; UO-31 renal; EKVX NSCLC.
Common to all, as to assay: NCI anticancer screen, dose series, 48 h

This note sets out measurements from PubChem BioAssay (NCI).

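Dose response: 5 concentrations. Exposure: 48 h. Format: 96-well plates. Endpoint: linear interpolation; highest concentration if not reached. GI50 marks 50% less growth. The concentration for full growth arrest is given as TGI.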

Regarding `CC1(C)N=C(N)N=C(N)N1c1ccc(OCCCCNC(=O)Nc2cccc(S(=O)(=O)F)c2)c(Cl)c1`, the GI50 in the experiment with HOP-62 NSCLC was 10.6 µM; in the experiment on HOP-92 NSCLC it was 27.1 µM; in the experiment on KM12 colon, 2.64 µM; in the experiment on MDA-MB-231 breast it was 6.57 µM; in the experiment with SF-539 CNS, 1.27 µM; in the experiment on SN12C renal, 0.577 µM. Moreover, the figures for the GI50 with SNB-75 CNS, with UACC-257 melanoma and in the experiment on UO-31 renal were 2.98 µM, 3.73 µM and 40.5 µM, respectively. Besides, the TGI with HOP-62 NSCLC is more than 100 µM; with HOP-92 NSCLC, more than 100 µM; in the experiment with KM12 colon, more than 100 µM; with MDA-MB-231 breast, more than 100 µM; in the experiment with SF-539 CNS, 8.5 µM; in the experiment on SN12C renal, more than 100 µM. Further, the TGI with SNB-75 CNS was 48.7 µM; with UACC-257 melanoma it was more than 100 µM; in the experiment on UO-31 renal, more than 100 µM.
Regarding `CCOC(=O)n1c2ccccc2c(=O)n1CCO`, the TGI in the experiment on EKVX NSCLC, with HOP-62 NSCLC, in the experiment with KM12 colon, in the experiment with MDA-MB-231 breast, with SF-539 CNS and in the experiment on SN12C renal was more than 100 µM throughout. In addition, the TGI in the experiment with SNB-75 CNS, in the experiment with UACC-257 melanoma and with UO-31 renal was more than 100 µM throughout.
Take `CCN(CCNc1ccc(C)c2sc3cc(Cl)ccc3c(=O)c12)CC(C)(C)O`: the GI50 with EKVX NSCLC was 3.41 µM; in the experiment with HOP-62 NSCLC, 3.87 µM; in the experiment on KM12 colon it was 2.32 µM; in the experiment on MDA-MB-231 breast, 2.31 µM; in the experiment on SF-539 CNS it was 5.54 µM; in the experiment with SN12C renal, 20.8 µM. Moreover, the GI50 was 3.31 µM in the experiment with SNB-75 CNS, 2.03 µM in the experiment with UACC-257 melanoma and 1.3 µM in the experiment with UO-31 renal. For the same compound, the TGI in the experiment with EKVX NSCLC is 21.6 µM; with HOP-62 NSCLC, 16.1 µM; in the experiment with KM12 colon it was 5.54 µM; with MDA-MB-231 breast, 11.5 µM; in the experiment on SF-539 CNS it was 24 µM; in the experiment with SN12C renal it was more than 100 µM. For the same compound, the TGI in the experiment with SNB-75 CNS amounted to 16.8 µM; in the experiment with UACC-257 melanoma, 4.37 µM; in the experiment on UO-31 renal it was 3.53 µM.
Turning to `CN1CC[C@]23c4c5ccc(O)c4OC2c2[nH]ncc2C[C@H]3[C@H]1C5` (stereo partly drawn), the TGI in the experiment with EKVX NSCLC, with HOP-62 NSCLC, in the experiment with HOP-92 NSCLC, with KM12 colon, in the experiment with MDA-MB-231 breast and in the experiment with SN12C renal was more than 100 µM each time. Moreover, the TGI with SNB-75 CNS, with UACC-257 melanoma and in the experiment on UO-31 renal was more than 100 µM in each case.
Regarding `O=C(CN(/C=C/C(=O)C(F)(F)F)c1ccccc1)c1ccc(F)cc1`, the GI50 is 49.9 µM in the experiment on EKVX NSCLC; 75.1 µM with HOP-62 NSCLC; 24.8 µM in the experiment on HOP-92 NSCLC; 24.9 µM in the experiment on KM12 colon; 17.7 µM in the experiment with MDA-MB-231 breast; 28.7 µM in the experiment with SF-539 CNS. In addition, the GI50 was 21.2 µM in the experiment with SN12C renal, 19.1 µM in the experiment with UACC-257 melanoma and 33.8 µM with UO-31 renal. Further, the TGI with EKVX NSCLC is more than 100 µM; with HOP-62 NSCLC, more than 100 µM; with HOP-92 NSCLC, 90.4 µM; with KM12 colon, 69.9 µM; in the experiment with MDA-MB-231 breast, 42.1 µM; in the experiment on SF-539 CNS it was 63.8 µM. Also, the figures for the TGI with SN12C renal, with UACC-257 melanoma and in the experiment on UO-31 renal were 54.9 µM, 93.2 µM and more than 100 µM, respectively.
Regarding `O=C(Nc1cccc(-n2cc(-c3ccncc3)c(-c3ccc(O)c(Cl)c3)n2)c1)Nc1ccc(Cl)c(Cl)c1`, the GI50 was 0.763 µM with HOP-92 NSCLC; 1.4 µM in the experiment with KM12 colon; 1.85 µM in the experiment with MDA-MB-231 breast; 1.57 µM in the experiment with SF-539 CNS; 2.72 µM with SN12C renal; 2.02 µM with UACC-257 melanoma. Further, in the experiment on UO-31 renal, the GI50 was 2.67 µM. Also, the TGI in the experiment on HOP-92 NSCLC was 3.38 µM; in the experiment with KM12 colon, 3.11 µM; in the experiment with MDA-MB-231 breast, more than 100 µM; in the experiment with SF-539 CNS, 4.87 µM; in the experiment on SN12C renal, more than 100 µM; in the experiment with UACC-257 melanoma, 5.13 µM. The TGI with UO-31 renal worked out at 8.34 µM.
On to `COc1ccc(C(=O)/C=C/c2ccc(OCc3ccccc3)c(OC)c2)cc1OC`, for which the GI50 in the experiment on HOP-62 NSCLC was 3.67 µM; in the experiment with HOP-92 NSCLC, 1.4 µM; in the experiment on KM12 colon, 3.48 µM; in the experiment with MDA-MB-231 breast, 3.7 µM; in the experiment on SF-539 CNS it was 2.67 µM; in the experiment with SN12C renal, 3.97 µM. Further, the values for the GI50 in the experiment on UACC-257 melanoma and with UO-31 renal were 6.25 µM and 4.16 µM, respectively. In addition, the TGI with HOP-62 NSCLC is more than 100 µM; in the experiment with HOP-92 NSCLC it was 5.81 µM; in the experiment on KM12 colon it was more than 100 µM; in the experiment on MDA-MB-231 breast, more than 100 µM; in the experiment with SF-539 CNS, 7.38 µM; with SN12C renal, more than 100 µM. Besides, the TGI in the experiment with UACC-257 melanoma and with UO-31 renal was more than 100 µM in each case.
Regarding `Cc1ccc(-c2nc(C(Cl)Cl)nc3cc(C)nn23)cc1`, the GI50 was 2.19 µM in the experiment with EKVX NSCLC; 1.31 µM in the experiment on HOP-62 NSCLC; 1.95 µM with HOP-92 NSCLC; 2.34 µM with MDA-MB-231 breast; 4.14 µM with SF-539 CNS; 5.88 µM in the experiment on SN12C renal. For the same compound, the values for the GI50 in the experiment with SNB-75 CNS, with UACC-257 melanoma and in the experiment with UO-31 renal were 1.48 µM, 3.26 µM and 3.38 µM, respectively. Further, the TGI in the experiment with EKVX NSCLC was 6.45 µM; in the experiment with HOP-62 NSCLC it was 8.58 µM; in the experiment on HOP-92 NSCLC, 7.64 µM; in the experiment on MDA-MB-231 breast, more than 100 µM; in the experiment on SF-539 CNS it was more than 100 µM; in the experiment on SN12C renal it was more than 100 µM. The TGI in the experiment with SNB-75 CNS is 8.39 µM; with UACC-257 melanoma, more than 100 µM; with UO-31 renal, more than 100 µM.
Consider `CC(C)c1cc(C(C)C)c(Cl)c(Cl)c1O` (tested in a mixture with another compound), for which the TGI with EKVX NSCLC is 53.7 µM; with HOP-62 NSCLC, more than 100 µM; with HOP-92 NSCLC it was 27.9 µM; in the experiment with KM12 colon, 58.1 µM; in the experiment on MDA-MB-231 breast, 46 µM; with SF-539 CNS, 49 µM. The figures for the TGI with SN12C renal, with UACC-257 melanoma and with UO-31 renal were 54.4 µM, 39.3 µM and 57.7 µM, respectively.
With `O=CC(O)C(O)C(OC1OC(CO)C(O)C(O)C1O)C(O)CO` (stereo not drawn) (tested in a mixture with another compound), the TGI with HOP-62 NSCLC was more than 100 µM; with HOP-92 NSCLC it was more than 100 µM; with KM12 colon it was 50.8 µM; in the experiment on MDA-MB-231 breast, 91.5 µM; with SF-539 CNS, more than 100 µM; in the experiment with SN12C renal, more than 100 µM. Besides, the TGI in the experiment with SNB-75 CNS, in the experiment on UACC-257 melanoma and in the experiment with UO-31 renal was more than 100 µM in each case.
